Each compound was assayed against PD-1/PD-L1 interaction (PD-1-Ig / PD-L1-His) (Homo sapiens (Human), UniProt Q9NZQ7) (assay: PD-1/PD-L1 Homogenous Time-Resolved Fluorescence (HTRF) binding assay). Settings: PD-1/PD-L1 HTRF binding assay; numeric value; read-out: Range or IC50.
Procedure, shortened: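 Human PD-L1-His (10 nM final) was pre-incubated with inhibitor for 15 min, then PD-1-Ig (20 nM final) was added for a further 15 min in dPBS with 0.1% BSA and 0.05% Tween-20. Binding was detected by HTRF using Eu-cryptate anti-Ig (1 nM) and APC anti-His (20 nM).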

Sequence of PD-1/PD-L1 interaction (PD-1-Ig / PD-L1-His) (Q9NZQ7 other isoform, or with tags, fused parts or gaps): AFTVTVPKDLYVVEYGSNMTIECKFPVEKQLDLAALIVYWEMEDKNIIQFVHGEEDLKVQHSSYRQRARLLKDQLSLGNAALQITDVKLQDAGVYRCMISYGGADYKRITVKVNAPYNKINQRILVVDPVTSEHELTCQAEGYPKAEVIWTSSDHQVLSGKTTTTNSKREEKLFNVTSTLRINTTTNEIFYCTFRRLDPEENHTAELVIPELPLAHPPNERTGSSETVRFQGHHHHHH

Question: How did the IC50 turn out when `Cc1c(COc2cc(OCc3cccc(C#N)c3)c(CNC(CO)(Cc3ccccc3)C(=O)O)cc2Cl)cccc1-c1ccc2c(c1)OCCO2` (centres unmarked) [Example 1218, 2-benzyl-2-((5-chloro-2-((3-cyanobenzyl)oxy)-4-((3-(2,3-dihydrobenzo[b][1,4]dioxin-6-yl)-2-methylbenzyl)oxy)benzyl)amino)-3-hydroxypropanoic acid] was run?
Answer: 10.1 nM

Question: For `Cc1c(COc2cc(OCc3cccc(C#N)c3)c(CNC3(C(=O)O)CCN(C)CC3)cc2Cl)cccc1-c1ccc2c(c1)OCCO2` [Example 1220, 4-((5-chloro-2-((3-cyanobenzyl)oxy)-4-((3-(2,3-dihydrobenzo[b][1,4]dioxin-6-yl)-2-methylbenzyl)oxy)benzyl)amino)-1-methylpiperidine-4-carboxylic acid], which IC50 is on record?
Answer: 6.07 nM

Question: `Cc1c(COc2ccc(CN[C@](C)(CO)C(=O)O)c(OCc3cccc(C#N)c3)c2Cl)cccc1-c1ccc2c(c1)OCCO2` [Example 1239, (R)-2-((3-chloro-2-((3-cyanobenzyl)oxy)-4-((3-(2,3-dihydrobenzo[b][1,4]dioxin-6-yl)-2-methylbenzyl)oxy)benzyl)amino)-3-hydroxy-2-methylpropanoic acid] was tested. Which IC50 did it give?
Answer: 149 nM

Same assay, conditions: PD-1/PD-L1 HTRF binding assay; value given as range class; read-out: Range or IC50

Question: Which IC50 does the source give for `Cc1c(COc2cc(OCc3cccc(C#N)c3)c(CNC(CC(F)(F)F)C(=O)O)cc2Cl)cccc1-c1ccc2c(c1)OCCO2` (centres unmarked) [Example 1216, 2-((5-chloro-2-((3-cyanobenzyl)oxy)-4-((3-(2,3-dihydrobenzo[b][1,4]dioxin-6-yl)-2-methylbenzyl)oxy)benzyl)amino)-4,4,4-trifluorobutanoic acid] here?
Answer: 100 to 20000 nM

Question: With `Cc1c(COc2cc(OCc3cccc(C#N)c3)c(CN[C@@H](Cc3cccc(C#N)c3)C(=O)O)cc2Cl)cccc1-c1ccc2c(c1)OCCO2` [Example 1217, (S)-2-((5-chloro-2-((3-cyanobenzyl)oxy)-4-((3-(2,3-dihydrobenzo[b][1,4]dioxin-6-yl)-2-methylbenzyl)oxy)benzyl)amino)-3-(3-cyanophenyl)propanoic acid] as the compound, how does the IC50 read?
Answer: 10 to 100 nM

Question: For `Cc1c(COc2cc(OCc3cccc(C#N)c3)c(CN3CC[C@H](O)[C@H]3C(=O)O)cc2Cl)cccc1-c1ccc2c(c1)OCCO2` [Example 1219, (2S,3S)-1-(5-chloro-2-((3-cyanobenzyl)oxy)-4-((3-(2,3-dihydrobenzo[b][1,4]dioxin-6-yl)-2-methylbenzyl)oxy)benzyl)-3-hydroxypyrrolidine-2-carboxylic acid], which IC50 is on record?
Answer: 0.6 to 10 nM

Question: `Cc1c(COc2cc(OCc3cccc(C#N)c3)c(CN[C@@H](Cc3ccccn3)C(=O)O)cc2Cl)cccc1-c1ccc2c(c1)OCCO2` [Example 1221, (S)-2-((5-chloro-2-((3-cyanobenzyl)oxy)-4-((3-(2,3-dihydrobenzo[b][1,4]dioxin-6-yl)-2-methylbenzyl)oxy)benzyl)amino)-3-(pyridin-2-yl)propanoic acid] was tested. Which IC50 did it give?
Answer: 0.6 to 10 nM

Question: With `Cc1c(COc2cc(OCc3cccc(C#N)c3)c(CN3CCSC[C@@H]3C(=O)O)cc2Cl)cccc1-c1ccc2c(c1)OCCO2` [Example 1222, (S)-4-(5-chloro-2-((3-cyanobenzyl)oxy)-4-((3-(2,3-dihydrobenzo[b][1,4]dioxin-6-yl)-2-methylbenzyl)oxy)benzyl)thiomorpholine-3-carboxylic acid] as the compound, how does the IC50 read?
Answer: 10 to 100 nM

Question: With `Cc1c(COc2cc(OCc3cccc(C#N)c3)c(CNC(C)(C)CN3CCN(C)CC3)cc2Cl)cccc1-c1ccc2c(c1)OCCO2` [Example 1223, 3-((4-chloro-5-((3-(2,3-dihydrobenzo[b][1,4]dioxin-6-yl)-2-methylbenzyl)oxy)-2-(((2-methyl-1-(4-methylpiperazin-1-yl)propan-2-yl)amino)methyl)phenoxy)methyl)benzonitrile] as the compound, how does the IC50 read?
Answer: 0.6 to 10 nM

Question: For `Cc1c(COc2cc(OCc3cccc(C#N)c3)c(CN3CCN(C)CC3C(=O)O)cc2Cl)cccc1-c1ccc2c(c1)OCCO2` (centres unmarked) [Example 1224, 1-(5-chloro-2-((3-cyanobenzyl)oxy)-4-((3-(2,3-dihydrobenzo[b][1,4]dioxin-6-yl)-2-methylbenzyl)oxy)benzyl)-4-methylpiperazine-2-carboxylic acid], which IC50 is on record?
Answer: 10 to 100 nM

Question: How did the IC50 turn out when `Cc1c(COc2cc(OCc3cccc(C#N)c3)c(CNCC(O)CN3CCCC3=O)cc2Cl)cccc1-c1ccc2c(c1)OCCO2` (centres unmarked) [Example 1225] was run?
Answer: 0.6 to 10 nM

Question: Which IC50 does the source give for `Cc1c(COc2cc(OCc3cccc(C#N)c3)c(CN3CCc4nc[nH]c4C3C(=O)O)cc2Cl)cccc1-c1ccc2c(c1)OCCO2` (centres unmarked) [Example 1226, 5-(5-chloro-2-((3-cyanobenzyl)oxy)-4-((3-(2,3-dihydrobenzo[b][1,4]dioxin-6-yl)-2-methylbenzyl)oxy)benzyl)-4,5,6,7-tetrahydro-3H-imidazo[4,5-c]pyridine-4-carboxylic acid] here?
Answer: 10 to 100 nM

Question: How did the IC50 turn out when `Cc1c(COc2cc(OCc3cccc(C#N)c3)c(CN[C@@H](Cn3ncnn3)C(=O)O)cc2Cl)cccc1-c1ccc2c(c1)OCCO2` [Example 1227, (S)-2-((5-chloro-2-((3-cyanobenzyl)oxy)-4-((3-(2,3-dihydrobenzo[b][1,4]dioxin-6-yl)-2-methylbenzyl)oxy)benzyl)amino)-3-(2H-tetrazol-2-yl)propanoic acid] was run?
Answer: 100 to 20000 nM

Question: With `Cc1c(COc2cc(OCc3cccc(C#N)c3)c(CN[C@H](Cc3cn(Cc4ccccc4)cn3)C(=O)O)cc2Cl)cccc1-c1ccc2c(c1)OCCO2` [Example 1228, (R)-3-(1-benzyl-1H-imidazol-4-yl)-2-((5-chloro-2-((3-cyanobenzyl)oxy)-4-((3-(2,3-dihydrobenzo[b][1,4]dioxin-6-yl)-2-methylbenzyl)oxy)benzyl)amino)propanoic acid] as the compound, how does the IC50 read?
Answer: 10 to 100 nM

Question: With `Cc1c(COc2cc(OCc3cccc(C#N)c3)c(CNCc3nnn[nH]3)cc2Cl)cccc1-c1ccc2c(c1)OCCO2` [Example 1229, 3-((2-((((1H-tetrazol-5-yl)methyl)amino)methyl)-4-chloro-5-((3-(2,3-dihydrobenzo[b][1,4]dioxin-6-yl)-2-methylbenzyl)oxy)phenoxy)methyl)benzonitrile] as the compound, how does the IC50 read?
Answer: 0.6 to 10 nM

Question: For `Cc1c(COc2cc(OCc3cccc(C#N)c3)c(CN3CCCC[C@H]3C(=O)O)cc2Cl)cccc1-c1ccc2c(c1)OCCO2` [Example 1230, (S)-1-(5-chloro-2-((3-cyanobenzyl)oxy)-4-((3-(2,3-dihydrobenzo[b][1,4]dioxin-6-yl)-2-methylbenzyl)oxy)benzyl)piperidine-2-carboxylic acid], which IC50 is on record?
Answer: 0.6 to 10 nM

Question: Which IC50 does the source give for `Cc1c(COc2ccc(CN[C@H](CO)C(=O)O)c(OCc3cccc(C#N)c3)c2Cl)cccc1-c1ccccc1` [Example 1231, (R)-2-((3-chloro-2-((3-cyanobenzyl)oxy)-4-((2-methyl-[1,1′-biphenyl]-3-yl)methoxy)benzyl)amino)-3-hydroxypropanoic acid] here?
Answer: 100 to 20000 nM

Question: With `Cc1c(COc2ccc(CNC[C@@H](O)CC(=O)O)c(OCc3cccc(C#N)c3)c2Cl)cccc1-c1ccccc1` [Example 1232, (S)-4-((3-chloro-2-((3-cyanobenzyl)oxy)-4-((2-methyl-[1,1′-biphenyl]-3-yl)methoxy)benzyl)amino)-3-hydroxybutanoic acid] as the compound, how does the IC50 read?
Answer: 100 to 20000 nM

Question: How did the IC50 turn out when `Cc1c(COc2ccc(CN3CCCC[C@H]3C(=O)O)c(OCc3cccc(C#N)c3)c2Cl)cccc1-c1ccccc1` [Example 1233, (S)-1-(3-chloro-2-(3-cyanobenzyloxy)-4-((2-methylbiphenyl-3-yl)methoxy)benzyl)piperidine-2-carboxylic acid] was run?
Answer: 100 to 20000 nM

Question: `CC(=O)NCCNCc1ccc(OCc2cccc(-c3ccccc3)c2C)c(Cl)c1OCc1cccc(C#N)c1` [Example 1234, N-(2-(3-chloro-2-(3-cyanobenzyloxy)-4-((2-methylbiphenyl-3-yl)methoxy)benzylamino)ethyl)acetamide] was tested. Which IC50 did it give?
Answer: 100 to 20000 nM

Question: `Cc1c(COc2ccc(CN[C@H](CO)C(=O)O)c(OCc3cccc(C#N)c3)c2Cl)cccc1-c1ccc2c(c1)OCCO2` [Example 1235, (R)-2-((3-chloro-2-((3-cyanobenzyl)oxy)-4-((3-(2,3-dihydrobenzo[b][1,4]dioxin-6-yl)-2-methylbenzyl)oxy)benzyl)amino)-3-hydroxypropanoic acid] was tested. Which IC50 did it give?
Answer: 100 to 20000 nM

Question: With `Cc1c(COc2ccc(CN3CCCC[C@H]3C(=O)O)c(OCc3cccc(C#N)c3)c2Cl)cccc1-c1ccc2c(c1)OCCO2` [Example 1236, (S)-1-(3-chloro-2-(3-cyanobenzyloxy)-4-(3-(2,3-dihydrobenzo[b][1,4]dioxin-6-yl)-2-methylbenzyloxy)benzyl)piperidine-2-carboxylic acid] as the compound, how does the IC50 read?
Answer: 100 to 20000 nM

Question: Which IC50 does the source give for `CC(=O)NCCNCc1ccc(OCc2cccc(-c3ccc4c(c3)OCCO4)c2C)c(Cl)c1OCc1cccc(C#N)c1` [Example 1237, N-(2-((3-chloro-2-((3-cyanobenzyl)oxy)-4-((3-(2,3-dihydrobenzo[b][1,4]dioxin-6-yl)-2-methylbenzyl)oxy)benzyl)amino)ethyl)acetamide] here?
Answer: 100 to 20000 nM

Question: Which IC50 does the source give for `Cc1c(COc2ccc(CN[C@@](C)(CO)C(=O)O)c(OCc3cccc(C#N)c3)c2Cl)cccc1-c1ccc2c(c1)OCCO2` [Example 1238, (S)-2-((3-chloro-2-((3-cyanobenzyl)oxy)-4-((3-(2,3-dihydrobenzo[b][1,4]dioxin-6-yl)-2-methylbenzyl)oxy)benzyl)amino)-3-hydroxy-2-methylpropanoic acid] here?
Answer: 100 to 20000 nM

Question: With `Cc1c(COc2ccc(CNC[C@@H](O)CC(=O)O)c(OCc3cccc(C#N)c3)c2Cl)cccc1-c1ccc2c(c1)OCCO2` [Example 1240, (S)-4-((3-chloro-2-((3-cyanobenzyl)oxy)-4-((3-(2,3-dihydrobenzo[b][1,4]dioxin-6-yl)-2-methylbenzyl)oxy)benzyl)amino)-3-hydroxybutanoic acid] as the compound, how does the IC50 read?
Answer: 100 to 20000 nM

Question: `C[C@](CO)(NCc1cc(Cl)c(OCc2cccc(-c3ccc4c(c3)OCCO4)c2C#N)cc1OCc1cccc(C#N)c1)C(=O)O` [Example 1241, (R)-2-((5-chloro-4-((2-cyano-3-(2,3-dihydrobenzo[b][1,4]dioxin-6-yl)benzyl)oxy)-2-((3-cyanobenzyl)oxy)benzyl)amino)-3-hydroxy-2-methylpropanoic acid] was tested. Which IC50 did it give?
Answer: 0.6 to 10 nM

Reference: patent US9850225B2, “Compounds useful as immunomodulators” (BRISTOL-MYERS SQUIBB COMPANY, priority 2014, dated 2017)
